Reference: patent US20130296250A1, “METHOD FOR TREATMENT OF PSORIASIS” (priority 2011, published 2013)
The star is where a group is joined. Myristoyl = CCCCCCCCCCCCCC(=O)*

Columns and labels:
C57BL/6J mouse [1] = assay: Macrophage infiltration in wound, Iba-1 staining; format: in vivo; conditions: daily treatment, five days post-wounding
Procedure: The effect of MPDY-1 on macrophage infiltration was also shown by Iba-1 staining. Iba-1 is a general marker for macrophages. […] As above, a two-cm longitudinal incision was done on the upper back of a C57BL/6J mouse. Following wounding, a sterile pad was sutured to the mouse's skin. Animals were treated daily with MPDY-1 (n=6). Five days post-wounding, when inflammatory phase reaches its peak, the mice were sacrificed, skin tissues were embedded in paraffin and immunohistochemical staining was performed utilizing anti-Iba-1 antibodies.

[2] = test system: TNFα activated keratinocytes; assay: Cytokine secretion in TNFα activated keratinocytes; format: cell-based; conditions: peptide inhibitors, FIGS. 19 to 23
C57BL/6J mouse [3] = assay: Macrophage activation in wound, MAC-2 staining; format: in vivo; conditions: daily treatment, 5 days; 1, 10 and 100 micrograms per mL
Procedure: The effect of MPDY-1 on macrophage activation was also shown by MAC-2 staining. MAC-2 is a specific marker for activated macrophages. […] A two-cm longitudinal incision was done as described above. Animals were treated daily with DPBS^−/− (Control) or MPDY-1 in the specified concentrations (n=6). After 5 days immunohistochemical staining was performed utilizing anti-MAC-2 antibodies. Bar […]. (*p(control Vs. MPDY-1 10 μg)=0.0028).

[4] = test system: IL-17A activated keratinocytes; assay: Cytokine secretion in IL-17A activated keratinocytes; format: cell-based; conditions: peptide inhibitors, FIGS. 24 to 27
[5] = test system: Keratinocytes derived from newborn C57BL/6 mice skin; assay: Cytokine secretion in LPS activated keratinocytes, Luminex; format: cell-based; conditions: peptide inhibitors, FIGS. 19 to 23
Excerpt: Resident skin cells and immunological cells (both resident and infiltrating cells) interact in the inflammatory psoriatic process by cell-cell interactions and cytokine secretion. Thus, HO/02/10 was examined for its direct effect on the secretion of pro-inflammatory, chemoattractant and immunological pathway related cytokines form both keratinocytes and immune cells such as macrophages and dendritic cells.
The results of FIGS. 17A and 17B show the effect of HO/02/10 on cytokine secretion in keratinocytes. Keratinocytes were derived from newborn C57BL/6 mice skin. The cells were incubated for 5 days in 24 wells plates. Cells were then treated with DPBS−/−, LPS (100 ng/ml), or HO/02/10 (1 μg/ml)+LPS ([…]). Medium containing secreted cytokines was collected after 48 hr and analyzed using a Luminex system.

Substance	macrophage infiltration (Iba-1 positive cells per field) (C57BL/6J mouse [1])	cytokine secretion from TNFα activated keratinocytes [2]	activation of macrophages (MAC-2 positive cells per field) (C57BL/6J mouse [3])	cytokine secretion from IL-17A activated keratinocytes [4]	cytokine secretion from LPS activated keratinocytes [5]
Myristoyl-Phe-Ala-Arg-Lys-Gly-Ala-Leu-Arg-Gln-OH (Myristoyl-FARKGALRQ-OH; SMILES CCCCCCCCCCCCCC(=O)N[C@@H](Cc1ccccc1)C(=O)N[C@@H](C)C(=O)N[C@@H](CCCNC(=N)N)C(=O)N[C@@H](CCCCN)C(=O)NCC(=O)N[C@@H](C)C(=O)N[C@@H](CC(C)C)C(=O)N[C@@H](CCCNC(=N)N)C(=O)N[C@@H](CCC(N)=O)C(=O)O) [MPDY-1]	dose dependent effect	decrease cytokine secretion	significantly inhibited	decrease cytokine secretion	decrease cytokine secretion
Myristoyl-Phe-Ala-Arg-Lys-Gly-Ala-Leu-OH (Myristoyl-FARKGAL-OH; SMILES CCCCCCCCCCCCCC(=O)N[C@@H](Cc1ccccc1)C(=O)N[C@@H](C)C(=O)N[C@@H](CCCNC(=N)N)C(=O)N[C@@H](CCCCN)C(=O)NCC(=O)N[C@@H](C)C(=O)N[C@@H](CC(C)C)C(=O)O) [MPDY-1 sh]	–	decrease cytokine secretion	–	decrease cytokine secretion	decrease cytokine secretion
H-Phe-Ala-Arg-Lys-Gly-Ala-Leu-Arg-Gln-OH-acetate salt (H-FARKGALRQ-OH; also: acetate salt) [PDY-1]	–	decrease cytokine secretion	–	decrease cytokine secretion	decrease cytokine secretion
